According to US4250259A, “Microbiological production of ketones from C3 -C6 secondary alcohols” (priority 1979, dated 1981):

What was measured:
[1] = system: purified secondary alcohol dehydrogenase (SADH); experiment: substrate specificity and Michaelis constants of purified SADH; format: biochemical, Pseudomonas sp. ATCC 21439
[2] = system: cell extracts (NAD+-dependent secondary alcohol dehydrogenase); experiment: sec-alcohols to methyl ketones by cell extracts of yeasts, gas chromatography; format: biochemical, Pichia sp. NRRL-Y-11,328; conditions: grown on methanol
[3] = system: purified secondary alcohol dehydrogenase; experiment: substrate specificity, electron acceptor and stoichiometry of purified yeast SADH; conditions: for oxidation by the purified yeast secondary alcohol dehydrogenase: examined spectrophotometrically
[4] = system: cell extracts (NAD+-dependent secondary alcohol dehydrogenase); experiment: sec-alcohols to methyl ketones by cell extracts of yeasts, gas chromatography; format: biochemical, Hansenula polymorpha ATCC 26,012; conditions: grown on methanol
[5] = system: Pichia sp. NRRL-Y-11328; experiment: sec-alcohols to ketones by cell suspensions of yeasts; format: cell-based
[6] = system: secondary alcohol dehydrogenase (SADH), cell-free soluble extract; experiment: oxidation of sec-alcohols by cell-free soluble extracts; format: biochemical, Methylobacterium organophilum CRL 26 (NRRL B-11,222); conditions: soluble crude extract; grown on methanol
Procedure: To prepare the cell-free secondary alcohol dehydrogenase (SADH) system, the washed cells were disrupted with a Wave Energy Ultrasonic Oscillator, Model W201 (Wave Energy System, Inc., Newtown, Pa.) and centrifuged at 20,000×g. for 30 minutes. […] The enzyme activity was measured with a fluorescence spectrophotometer (Perkin Elmer, Model MPF 44A) by following the formation of reduced NAD (EX 340 nm, Em 460 nm). The formation of reduced NAD was also followed with an absorption spectrophotometer at 340 nm. The assay system (3 ml.) contained: potassium phosphate buffer pH 7.0; 150 μmol.; NAD 1 μmol.; a given amount of enzyme preparation; and secondary alcohol 10 μmol. The reaction was started by the addition of substrate. One unit of enzyme activity represents the reduction of one μmole NAD per minute. Protein concentrations were determined by the Lowry method (J. Biol. Chem., 193: 255-275 (1951)).
The experimental procedure for the tests reported in Table VIII were as follows: 1 mg protein of crude extract was added into a 0.5 ml. 0.05 M phosphate buffer (pH 7.0) in a 10-ml. vial. […] The reaction mixture was incubated at 30° C. on a water bath. A 3 μl sample was removed with a syringe at 15 min. of incubation and was assayed with g.l.c. Catalytic activity was also assayed by fluorescence spectrophotometry.

[7] = system: Methylosinus trichosporium OB3b (NRRL B-11,196); experiment: sec-alcohols to ketones by resting cell suspensions; format: cell-based
Procedure: (§1) The pH of the nutrient medium was adjusted to 7.0 by the addition of acid or base and 50 ml. samples of the nutrient medium were charged into a plurality of 300 ml. shaker flasks. The shaker flasks were inoculated with an inoculating loop of cells from an agar plate containing homogeneous colonies of the microorganisms on the plate (the purity of the isolates was confirmed by microscopic examination). The isolates had been maintained on methanol (0.4% V/V) agar plates or on agar plates under an atmosphere of methane and air having a 1:1 V/V gas ratio which had been transferred every two weeks. For growth on methanol, the medium was supplemented with 0.4% methanol. For growth on methane, the gaseous phase of the inoculated flasks was replaced with a gas mixture comprised of methane and air having a ratio of 1:1 on a V/V basis. The inoculated flasks were sealed air-tight and were incubated on a rotary shaker of orbital radius 2.5 cm. at 250 rpm and at 30° C. for two days until turbidity in the medium had developed. The cells were harvested by centrifugation at 10,000×g. at 4° C. for 30 minutes. The cell pellet was washed twice with a 0.05 M phosphate buffer at a pH of 7.0 (containing 0.02 M MgCl2). The washed cells were then suspended in a 0.05 M phosphate buffer at pH 7.0.
(§2) A 0.5 ml. sample of each washed cell suspension (2 mg. cells) was put into 10 ml. vials at 4° C. which were sealed with a rubber cap. The gaseous phase of the vials was removed with vacuum and then was replaced with a gas mixture of the substrate reactant (i.e., alkane or secondary alcohol) and oxygen at a 1:1 V/V ratio. (In the case of a liquid substrate, i.e., secondary alcohol, 10 μl of the substrate was put in the 10 ml. vials). […] Samples of product (1-3 μl) were withdrawn periodically with a microsyringe and the products were analyzed by gas chromatography (ionization flame detector column).
(§3) The procedure in Example 1 was repeated wherein a plurality of the methane-utilizing methylotrophic microorganisms were each grown aerobically in a nutrient medium containing methane as the alcohol dehydrogenase enzyme inducer and as the major carbon and energy source for growth. The cells were harvested and washed as described in Example 1. The resting microbial cells of the induced methane-grown methane-utilizing methylotrophic microorganisms were then contacted with C3 -C6 secondary alcohols in a buffered solution by the procedure of Example 1.
(§4) In this example, the procedure in Example 1 was repeated except that a plurality of methane-utilizing methylotrophic microorganisms were each aerobically grown in a methanol-containing nutrient medium instead of a methane-containing medium. The nutrients in the medium were the same as indicated in Example 1 except that 0.4% V/V methanol was used as the alcohol dehydrogenase inducer and major source of carbon and energy for growth. Following growth, the cells were harvested and washed as described in Example 1.
(§5) The resting cells of the induced methanol-grown methylotrophic microorganisms were then contacted with secondary alcohols in a buffered solution by the procedure described in Example 1.
(§6) The procedure in Example 1 was repeated except that the methylotrophic microorganisms were each aerobically grown in an alcohol dehydrogenase-inducing growth medium containing methylamine or methyl formate as the alcohol dehydrogenase enzyme inducer and growth substrate instead of methane. The nutrients in the medium were the same as indicated in Example 1 except that 0.4% V/V of the alcohol dehydrogenase-inducer growth substrate was used as the major carbon and energy source. The cells were harvested and washed as described in Example 1. The resting microbial cells were then contacted with C3 -C6 secondary alcohols in a buffered solution by the conversion procedure of Example 1.

[8] = system: Methylobacterium organophilum XX (ATCC 27886); experiment: as above; format: cell-based
Procedure: as §1, §2, §3, §4, §5, §6

[9] = system: Methylomonas albus BG8 (NRRL B-11,200); experiment: as above; format: cell-based
Procedure: as §1, §2, §3, §4, §5

[10] = system: Methylosinus sporium 5 (NRRL B-11,197); experiment: as above; format: cell-based
Procedure: as §1, §2, §3, §4, §5

| SMILES | oxidation by purified SADH [1] | Conversion Rate, sec-alcohol to methyl ketone [2] [μmoles/hr/mg Protein] | oxidation by the purified yeast secondary alcohol dehydrogenase [3] | Conversion Rate, sec-alcohol to methyl ketone [4] [μmoles/hr/mg Protein] | Conversion Rate, sec-alcohol to corresponding ketone ([5]; Growth Substrate Ethanol) | Conversion Rate, sec-alcohol to corresponding ketone ([5]; Growth Substrate Methanol) | Conversion Rate, sec-alcohol to corresponding ketone ([5]; Growth Substrate Methylamine) | Conversion Rate, sec-alcohol to corresponding ketone ([5]; Growth Substrate Methylformate) | Conversion Rate, sec-alcohol to corresponding ketone ([5]; Growth Substrate Propylamine) | Oxidation Rate, sec-alcohol to corresponding ketone [6] [nmole/min/mg protein] | Conversion Rates, sec-alcohol to corresponding ketone ([7]; cells grown on methane) [μmoles/hr/mg protein] | Conversion Rates, sec-alcohol to corresponding ketone ([7]; cells grown on methanol) [μn moles/hr/mg protein] | Conversion Rates, sec-alcohol to corresponding ketone ([7]; methyl formate-grown cells) [μmoles/hr/mg protein] | Conversion Rates, sec-alcohol to corresponding ketone ([8]; cells grown on methane) [μmoles/hr/mg protein] | Conversion Rates, sec-alcohol to corresponding ketone ([8]; cells grown on methanol) [μn moles/hr/mg protein] | Conversion Rates, sec-alcohol to corresponding ketone ([8]; methyl formate-grown cells) [μmoles/hr/mg protein] | also measured |
| --- | --- | --- | --- | --- | --- | --- | --- | --- | --- | --- | --- | --- | --- | --- | --- | --- | --- |
| CCCCC(C)O (centres unmarked) [2-Hexanol, 2-hexanol] | lower rate | 0.60 | catalyzed the oxidation | 0.51 | 0.28 μmoles/hr/mg of protein | 0.50 μmoles/hr/mg of protein | 0.31 μmoles/hr/mg of protein | 0.48 μmoles/hr/mg of protein | 0.21 μmoles/hr/mg of protein | 0 | 0.07 | 0.9 | 0.72 | 0.12 | 1.1 | 0.70 | – |
| CCCC(C)O (centres unmarked) [2-Pentanol, 2-pentanol] | lower rate | 1.2 | catalyzed the oxidation | 1.0 | 1.0 μmoles/hr/mg of protein | 1.2 μmoles/hr/mg of protein | 0.72 μmoles/hr/mg of protein | 0.98 μmoles/hr/mg of protein | 0.60 μmoles/hr/mg of protein | 0.1 | 2.7 | 2.9 | 1.5 | 0.82 | 0.9 | 1.0 | – |
| CC(C)O [2-Propanol, 2-propanol] | highest | 5.5 | catalyzed the oxidation | 4.8 | 4.5 μmoles/hr/mg of protein | 5.2 μmoles/hr/mg of protein | 4.2 μmoles/hr/mg of protein | 4.9 μmoles/hr/mg of protein | 3.2 μmoles/hr/mg of protein | 2.1 | 0.25 | 0.30 | 0.95 | 0.5 | 0.70 | 0.48 | Conversion Rates, sec-alcohol to corresponding ketone ([9]; cells grown on methane): 1.3 μmoles/hr/mg protein; Conversion Rates, sec-alcohol to corresponding ketone ([9]; cells grown on methanol): 1.5 μn moles/hr/mg protein; Conversion Rates, sec-alcohol to corresponding ketone ([10]; cells grown on methane): 0.30 μmoles/hr/mg protein; Conversion Rates, sec-alcohol to corresponding ketone ([10]; cells grown on methanol): 0.45 μn moles/hr/mg protein; Product Formed ([3]; stoichiometry, Acetone from Isopropanol, 2-Butanone from 2-Butanol, gas chromatography): 5.5 µmol |
